Target: S. pneumoniae Topoisomerase IV ATPase (ParE) (Streptococcus pneumoniae serotype 4, UniProt Q59961)
Test: S. pneumoniae Topoisomerase IV ATPase inhibition
Type: biochemical
Conditions: values marked * are an average of two or more data points, read-out: % Inh (13 μM) of S. pneumoniae Topoisomerase IV ATPase
Method in brief: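 Phosphate-release ATPase assay: 1.25 nM ParE, 160 μM ATP, DNA-stimulated. Quench with malachite green/molybdate in 1 M HCl, read 650 nm; IC50 from 10-point dose series.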

S. pneumoniae Topoisomerase IV ATPase (ParE), sequence (Q59961 whole entry): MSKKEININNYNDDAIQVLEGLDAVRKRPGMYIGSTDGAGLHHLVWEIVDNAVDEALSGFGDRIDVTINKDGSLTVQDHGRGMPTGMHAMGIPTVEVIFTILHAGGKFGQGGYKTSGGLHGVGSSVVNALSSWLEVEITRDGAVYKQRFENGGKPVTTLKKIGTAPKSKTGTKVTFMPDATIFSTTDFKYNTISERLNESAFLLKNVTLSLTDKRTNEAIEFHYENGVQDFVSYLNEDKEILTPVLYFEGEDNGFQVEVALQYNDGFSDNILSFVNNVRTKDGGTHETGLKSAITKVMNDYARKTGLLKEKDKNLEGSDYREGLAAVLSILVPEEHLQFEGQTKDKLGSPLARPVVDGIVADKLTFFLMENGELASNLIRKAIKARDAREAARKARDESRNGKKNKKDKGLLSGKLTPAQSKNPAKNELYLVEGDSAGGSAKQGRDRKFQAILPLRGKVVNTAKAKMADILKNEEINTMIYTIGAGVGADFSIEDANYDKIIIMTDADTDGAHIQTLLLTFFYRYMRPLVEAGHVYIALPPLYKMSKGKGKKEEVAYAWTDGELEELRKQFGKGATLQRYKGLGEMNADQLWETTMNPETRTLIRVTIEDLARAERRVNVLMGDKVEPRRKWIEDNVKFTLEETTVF

SMILES	inhibition at 13 µM
COCCCNc1nc(Nc2ccc(F)c(Cl)c2)ncc1-c1nc(-c2cnoc2C)cs1 [Example 503, N^2-(3-chloro-4-fluorophenyl)-N^4-(3-methoxypropyl)-5-[4-(5-methylisoxazol-4-yl)-1,3-thiazol-2-yl]pyrimidine-2,4-diamine]	147%
COCCCNc1nc(Nc2ccc(F)c(Cl)c2)ncc1-c1nc(-c2cncn2C)cs1 [Example 504, N^2-(3-chloro-4-fluorophenyl)-N^4-(3-methoxypropyl)-5-[4-(1-methyl-1H-imidazol-5-yl)-1,3-thiazol-2-yl]pyrimidine-2,4-diamine]	83%
COCCCNc1nc(Nc2ccc(F)c(Cl)c2)ncc1-c1nc(C)c(C(=O)OC)s1 [Example 505, methyl 2-{2-[(3-chloro-4-fluorophenyl)amino]-4-[(3-methoxypropyl)amino]pyrimidin-5-yl}-4-methyl-1,3-thiazole-5-carboxylate]	19%
CCOC(=O)c1sc(-c2cnc(Nc3ccc(F)c(Cl)c3)nc2NCCCOC)nc1-c1ccccc1 [Example 506, ethyl 2-{2-[(3-chloro-4-fluorophenyl)amino]-4-[(3-methoxypropyl)amino]pyrimidin-5-yl}-4-phenyl-1,3-thiazole-5-carboxylate]	33%
CCOC(=O)c1sc(-c2cnc(Nc3ccc(F)c(Cl)c3)nc2NCCCOC)nc1-c1ccccn1 [Example 507, ethyl 2-{2-[(3-chloro-4-fluorophenyl)amino]-4-[(3-methoxypropyl)amino]pyrimidin-5-yl}-4-(pyridin-2-yl)-1,3-thiazole-5-carboxylate]	74%
CCOC(=O)c1sc(-c2cnc(Nc3ccc(F)c(Cl)c3)nc2NCCCOC)nc1-c1ccn(C)n1 [Example 508, ethyl 2-{2-[(3-chloro-4-fluorophenyl)amino]-4-[(3-methoxypropyl)amino]pyrimidin-5-yl}-4-(1-methyl-1H-pyrazol-3-yl)-1,3-thiazole-5-carboxylate]	0%
COCCCNc1nc(Nc2ccc(F)c(Cl)c2)ncc1-c1nc(C)c(C(=O)O)s1 [Example 509, 2-{2-[(3-chloro-4-fluorophenyl)amino]-4-[(3-methoxypropyl)amino]pyrimidin-5-yl}-4-methyl-1,3-thiazole-5-carboxylic acid]	100%
COCCCNc1nc(Nc2ccc(F)c(Cl)c2)ncc1-c1nc(-c2ccccc2)c(C(=O)O)s1 [Example 510, 2-{2-[(3-chloro-4-fluorophenyl)amino]-4-[(3-methoxypropyl)amino]pyrimidin-5-yl}-4-phenyl-1,3-thiazole-5-carboxylic acid]	97%
COCCCNc1nc(Nc2ccc(F)c(Cl)c2)ncc1-c1nc(-c2ccccn2)c(C(=O)O)s1 [Example 511, 2-{2-[(3-chloro-4-fluorophenyl)amino]-4-[(3-methoxypropyl)amino]pyrimidin-5-yl}-4-(pyridin-2-yl)-1,3-thiazole-5-carboxylic acid]	100%
COCCCNc1nc(Nc2ccc(F)c(Cl)c2)ncc1-c1nc(-c2ccn(C)n2)c(C(=O)O)s1 [Example 512, 2-{2-[(3-chloro-4-fluorophenyl)amino]-4-[(3-methoxypropyl)amino]pyrimidin-5-yl}-4-(1-methyl-1H-pyrazol-3-yl)-1,3-thiazole-5-carboxylic acid]	100%
O=C(O)/C=C/c1cccc(-c2cnc(Nc3ccc(F)c(CO)c3)nc2N2CCOCC2)c1 [Example 516, (2E)-3-{3-[2-{[4-fluoro-3-(hydroxymethyl)phenyl]amino}-4-(morpholin-4-yl)pyrimidin-5-yl]phenyl}prop-2-enoic acid]	98%
O=C(O)/C=C/c1cccc(-c2cnc(Nc3cccc4cc[nH]c34)nc2N2CCOCC2)c1 [Example 517, (2E)-3-{3-[2-(1H-indol-7-ylamino)-4-(morpholin-4-yl)pyrimidin-5-yl]phenyl}prop-2-enoic acid]	100%
Cc1cc(-c2nccs2)nn1-c1nc(Nc2ccc(F)c(Cl)c2)ncc1-c1cncc(C(=O)O)c1 [Example 529, 5-{2-[(3-chloro-4-fluorophenyl)amino]-4-[5-methyl-3-(1,3-thiazol-2-yl)-1H-pyrazol-1-yl]pyrimidin-5-yl}pyridine-3-carboxylic acid]	100%
Cc1cc(C(F)F)nn1-c1nc(Nc2ccc(F)c(Cl)c2)ncc1-c1cncc(C(=O)O)c1 [Example 530, 5-{2-[(3-chloro-4-fluorophenyl)amino]-4-[3-(difluoromethyl)-5-methyl-1H-pyrazol-1-yl]pyrimidin-5-yl}pyridine-3-carboxylic acid]	100%
Cc1cc(C(F)F)n(-c2nc(Nc3ccc(F)c(Cl)c3)ncc2-c2cncc(C(=O)O)c2)n1 [Example 531, 5-{2-[(3-chloro-4-fluorophenyl)amino]-4-[5-(difluoromethyl)-3-methyl-1H-pyrazol-1-yl]pyrimidin-5-yl}pyridine-3-carboxylic acid]	100%
O=C(O)c1cncc(-c2cnc(Nc3ccc(F)c(Cl)c3)nc2-n2nc(C(F)F)cc2C(F)F)c1 [Example 532, 5-{4-[3,5-bis(difluoromethyl)-1H-pyrazol-1-yl]-2-[(3-chloro-4-fluorophenyl)amino]-pyrimidin-5-yl}pyridine-3-carboxylic acid]	100%

SMILES	inhibition at 13 µM
O=C(O)c1cncc(-c2cnc(Nc3ccc(F)c(Cl)c3)nc2-n2ccc(-c3ccsc3)n2)c1 [Example 533, 5-{2-[(3-chloro-4-fluorophenyl)amino]-4-[3-(thiophen-3-yl)-1H-pyrazol-1-yl]pyrimidin-5-yl}pyridine-3-carboxylic acid]	100%
CC(=O)Nc1ccn(-c2nc(Nc3ccc(F)c(Cl)c3)ncc2-c2cncc(C(=O)O)c2)n1 [Example 534, 5-{4-[3-(acetylamino)-1H-pyrazol-1-yl]-2-[(3-chloro-4-fluorophenyl)amino]pyrimidin-5-yl}pyridine-3-carboxylic acid]	49%
O=C(O)c1cncc(-c2cnc(Nc3ccc(F)c(Cl)c3)nc2-n2cc(-c3ccccn3)cn2)c1 [Example 535]	100%
O=C(O)c1cncc(-c2cnc(Nc3ccc(F)c(Cl)c3)nc2-n2cc(-c3ccncn3)cn2)c1 [Example 536, 5-{2-[(3-chloro-4-fluorophenyl)amino]-4-[4-(pyrimidin-4-yl)-1H-pyrazol-1-yl]pyrimidin-5-yl}pyridine-3-carboxylic acid]	100%
Cc1cc(-c2nccs2)nn1-c1nc(Nc2ccc(F)c(Cl)c2)ncc1-c1cncc(C(N)=O)c1 [Example 537, 5-{2-[(3-chloro-4-fluorophenyl)amino]-4-[5-methyl-3-(1,3-thiazol-2-yl)-1H-pyrazol-1-yl]pyrimidin-5-yl}pyridine-3-carboxamide]	100%
Cc1cc(C(F)F)nn1-c1nc(Nc2ccc(F)c(Cl)c2)ncc1-c1cncc(C(N)=O)c1 [Example 538, 5-{2-[(3-chloro-4-fluorophenyl)amino]-4-[3-(difluoromethyl)-5-methyl-1H-pyrazol-1-yl]pyrimidin-5-yl}pyridine-3-carboxamide]	100%
NC(=O)c1cncc(-c2cnc(Nc3ccc(F)c(Cl)c3)nc2-n2nc(C(F)F)cc2C(F)F)c1 [Example 539, 5-{4-[3,5-bis(difluoromnethyl)-1H-pyrazol-1-yl]-2-[(3-chloro-4-fluorophenyl)amino]pyrimidin-5-yl}pyridine-3-carboxamide]	100%
NC(=O)c1cncc(-c2cnc(Nc3ccc(F)c(Cl)c3)nc2-n2ccc(-c3ccsc3)n2)c1 [Example 540, 5-{2-[(3-chloro-4-fluorophenyl)amino]-4-[3-(thiophen-3-yl)-1H-pyrazol-1-yl]pyrimidin-5-yl}pyridine-3-carboxamide]	100%
CC(=O)Nc1ccn(-c2nc(Nc3ccc(F)c(Cl)c3)ncc2-c2cncc(C(N)=O)c2)n1 [Example 541, 5-{4-[3-(acetylamino)-1H-pyrazol-1-yl]-2-[(3-chloro-4-fluorophenyl)amino]pyrimidin-5-yl}pyridine-3-carboxamide]	97%
NC(=O)c1cncc(-c2cnc(Nc3ccc(F)c(Cl)c3)nc2-n2cc(-c3ccccn3)cn2)c1 [Example 542]	85%
NC(=O)c1cncc(-c2cnc(Nc3ccc(F)c(Cl)c3)nc2-n2cc(-c3ccncn3)cn2)c1 [Example 543, 5-{2-[(3-chloro-4-fluorophenyl)amino]-4-[4-(pyrimidin-4-yl)-1H-pyrazol-1-yl]pyrimidin-5-yl}pyridine-3-carboxamide]	68%
CONC(=O)c1cncc(-c2cnc(Nc3ccc(F)c(Cl)c3)nc2-n2nc(-c3nccs3)cc2C)c1 [Example 545, 5-{2-[(3-chloro-4-fluorophenyl)amino]-4-[5-methyl-3-(1,3-thiazol-2-yl)-1H-pyrazol-1-yl]pyrimidin-5-yl}-N-methoxypyridine-3-carboxamide]	100%
CONC(=O)c1cncc(-c2cnc(Nc3ccc(F)c(Cl)c3)nc2-n2nc(C(F)F)cc2C)c1 [Example 546, 5-{2-[(3-chloro-4-fluorophenyl)amino]-4-[3-(difluoromethyl)-5-methyl-1H-pyrazol-1-yl]pyrimidin-5-yl}-N-methoxypyridine-3-carboxamide]	100%
CONC(=O)c1cncc(-c2cnc(Nc3ccc(F)c(Cl)c3)nc2-n2nc(C(F)F)cc2C(F)F)c1 [Example 547, 5-{4-[3,5-bis(difluoromethyl)-1H-pyrazol-1-yl]-2-[(3-chloro-4-fluorophenyl)amino]pyrimidin-5-yl}-N-methoxypyridine-3-carboxamide]	71%
CONC(=O)c1cncc(-c2cnc(Nc3ccc(F)c(Cl)c3)nc2-n2ccc(-c3ccsc3)n2)c1 [Example 548, 5-{2-[(3-chloro-4-fluorophenyl)amino]-4-[3-(thiophen-3-yl)-1H-pyrazol-1-yl]pyrimidin-5-yl}-N-methoxypyridine-3-carboxamide]	95%
